Here are results for 37 molecules from ChEMBL document CHEMBL4483862, “Open-source discovery of chemical leads for next-generation chemoprotective antimalarials” (2018).

Molecules are shown by their SMILES.

The test relates to Plasmodium berghei. Put plainly: Luciferase/luciferin-expressing antifolate-resistant parasites were used to infect a culture of HepG2 cells that were pre-incubated with compounds. Infected hepatocytes emit light due to the luciferase reaction. Assay results are presented as the percent inhibition of light emission compared to control. […]. It is filed as functional. As to conditions: sporozoite; for IC90: read-out: LUCIFERASE INFECTION ASSAY - IC90.

The mark [1] stands for this setting: read-out: LUCIFERASE INFECTION ASSAY - IC50.

The IC50 is the midpoint of a concentration-inhibition curve. In general, IC90 refers to the concentration needed for an effect of 90%. Consider `CCOc1ccc(NC(=O)c2ccc(F)cc2)cc1S(=O)(=O)N(C)C`, for which the IC90 was above 10 µM. The IC50 (PBLUC_HILL_SLOPE 2.43, PBLUC_R_SQUARED 0.406, read-out: LUCIFERASE INFECTION ASSAY - IC50) was 8.56 µM.
As to `COCCCn1c(C)cc(C(=O)CSc2nc3scc(-c4ccccc4)c3c(=O)n2C)c1C`, the concentration for an effect of 90% (IC90) was above 10 µM. For the same molecule, the IC50 (FFLUC_HILL_SLOPE 7.71, FFLUC_R_SQUARED 0.356, PBLUC_HILL_SLOPE 2.63, PBLUC_R_SQUARED 0.68, read-out: LUCIFERASE INFECTION ASSAY - IC50) is 6.41 µM.
Take `Cc1ccc(N2CC(C(=O)Nc3cc(C4CC4)n[nH]3)CC2=O)cc1` (centres undefined): the IC90 was 2.23 µM. In addition, where the note is “HEPG2TOX_HILL_SLOPE 2.65, HEPG2TOX_R_SQUARED 0.943, PBLUC_HILL_SLOPE 2.62, PBLUC_R_SQUARED 0.892, read-out: LUCIFERASE INFECTION ASSAY - IC50”, the IC50 turned out to be 0.963 µM.
Consider `Fc1ccc(CNCC2(c3ccnc(-c4ccc(Cl)cc4)c3)CC2)cc1F`, for which the 90% effect concentration (IC90) was above 10 µM. Besides, the half-maximal inhibitory concentration (IC50) under setting [1] is above 10 µM.
For `CC1=CC(=O)N(c2cc(Cl)cc(Cl)c2)C1=O`, the 90% effect concentration (IC90) is above 12.9 µM. The half-inhibitory concentration (IC50) under setting [1] is above 12.9 µM.
Regarding `COC(=O)c1ccc(C(=O)Nc2nc3ccc(C)cn3c2C(=O)NC2CCCCC2)cc1`, the 90% effect concentration (IC90) was above 7.6 µM. Also, the IC50 (HEPG2TOX_HILL_SLOPE 6.71, HEPG2TOX_R_SQUARED 0.117, PBLUC_HILL_SLOPE 12.8, PBLUC_R_SQUARED 0.0177, read-out: LUCIFERASE INFECTION ASSAY - IC50) amounted to 7.03 µM.
In the case of `Cc1c(C(=O)Nc2ccc(Oc3ccccc3)cc2)[nH]c2c1C(=O)CCC2`, the IC90 was above 10 µM. The IC50 (PBLUC_HILL_SLOPE 16.6, PBLUC_R_SQUARED 0.701, read-out: LUCIFERASE INFECTION ASSAY - IC50) amounted to 9.52 µM.
`O=C(Nc1nc(C23CC4CC(CC(C4)C2)C3)cs1)c1cnccn1`: the IC90 was above 10 µM. The concentration for half-maximal inhibition (IC50) (PBLUC_HILL_SLOPE 9.13, PBLUC_R_SQUARED 0.249, read-out: LUCIFERASE INFECTION ASSAY - IC50) came to 8.02 µM.
In the case of `CCCCNC(=O)NC(=O)CNc1cc(S(=O)(=O)N2CCCCC2)ccc1OCC`, the IC90 is above 10 µM. Besides, the 50% inhibitory concentration (IC50) (HEPG2TOX_HILL_SLOPE 3.87, HEPG2TOX_R_SQUARED 0.807, PBLUC_HILL_SLOPE 2.62, PBLUC_R_SQUARED 0.78, read-out: LUCIFERASE INFECTION ASSAY - IC50) was found to be 5.03 µM.
Consider `COc1ccc(C2NC(=O)NC(c3ccccc3)=C2c2nc3ccccc3s2)cc1OCc1ccccc1` (centres undefined), for which the 90% effect concentration (IC90) is above 10 µM. In addition, the 50% inhibitory concentration (IC50) under setting [1] worked out at 9.63 µM.
The corresponding values for `O=C(Nc1cccc(F)c1)C1(c2ccnc(Nc3ccc(C(F)(F)F)cc3)c2)CC1` are above 10 µM and above 10 µM.
On to `COc1ccc(NS(=O)(=O)c2cc(NCc3ccccc3C)cc(C(=O)NCCN(C)C)c2)cc1`, for which the IC90 was above 6.64 µM. For the setting “HEPG2TOX_HILL_SLOPE 13.2, HEPG2TOX_R_SQUARED 0.729, PBLUC_HILL_SLOPE 3.39, PBLUC_R_SQUARED 0.479, read-out: LUCIFERASE INFECTION ASSAY - IC50”, the half-maximal inhibitory concentration (IC50) was found to be 4.55 µM.
With `Cc1ccc(C(=O)Nc2nc(C(N)Cc3ccccc3)cs2)cc1` (centres undefined), the IC90 is above 9.78 µM. The 50% inhibitory concentration (IC50) under setting [1] is above 9.78 µM.
Regarding `N#Cc1ccsc1NC(=O)CCN1CCN(Cc2c(F)cccc2Cl)CC1`, the IC90 was above 10 µM. The IC50 under setting [1] was above 10 µM.
As to `Cc1cc(=O)oc2cc(OCc3ccc(C(=O)Nc4nc5ccccc5[nH]4)cc3)ccc12`, the 90% effect concentration (IC90) was above 10 µM. Further, the concentration for half-maximal inhibition (IC50) (PBLUC_HILL_SLOPE 0.6, PBLUC_R_SQUARED 0.47, read-out: LUCIFERASE INFECTION ASSAY - IC50) was 3.19 µM.
In the case of `Clc1cccc(-c2ccnc3n[nH]c(-c4cccnc4)c23)c1`, the IC90 worked out at 4.14 µM. The IC50 (HEPG2TOX_HILL_SLOPE 2.64, HEPG2TOX_R_SQUARED 0.942, PBLUC_HILL_SLOPE 10.9, PBLUC_R_SQUARED 0.513, read-out: LUCIFERASE INFECTION ASSAY - IC50) was 3.39 µM.
Turning to `O=C1C=CC(=O)N1c1cc(F)ccc1F`, the concentration for an effect of 90% (IC90) is above 15.8 µM. Besides, the concentration for half-maximal inhibition (IC50) (FFLUC_HILL_SLOPE 1.16, FFLUC_R_SQUARED 0.312, PBLUC_HILL_SLOPE 23.3, PBLUC_R_SQUARED 0.503, read-out: LUCIFERASE INFECTION ASSAY - IC50) worked out at 15.2 µM.
In the case of `CCC(NCC(O)COc1ccccc1C(C)C)c1ccc(Br)cc1` (centres undefined), the 90% effect concentration (IC90) was above 10 µM. For the same molecule, the IC50 (PBLUC_HILL_SLOPE 15.5, PBLUC_R_SQUARED 0.67, read-out: LUCIFERASE INFECTION ASSAY - IC50) was determined as 9.4 µM.
Turning to `CCCN(Cc1nc(=O)c2ccc(Cl)cc2[nH]1)C(=O)C1CCN(c2nc3ccccc3o2)CC1`, the IC90 is above 10 µM. Further, under setting [1], the IC50 is above 10 µM.
Take `Cc1oc(-c2ccccc2)nc1C(=O)N(C)CC(=O)Nc1ccc(N2CCOCC2)cc1`: the concentration for an effect of 90% (IC90) was above 10 µM. Moreover, the half-inhibitory concentration (IC50) (FFLUC_HILL_SLOPE 0.476, FFLUC_R_SQUARED 0.109, HEPG2TOX_HILL_SLOPE 11.6, HEPG2TOX_R_SQUARED 0.88, read-out: LUCIFERASE INFECTION ASSAY - IC50) is above 10 µM.
Consider `CCn1cc(C(=O)OCC(=O)N2N=C3/C(=C/c4ccccc4)CCCC3C2c2ccccc2)c(=O)c2ccc(C)nc21` (centres undefined), for which the IC90 came to 9.47 µM. Also, the half-inhibitory concentration (IC50) (FFLUC_HILL_SLOPE 4.43, FFLUC_R_SQUARED 0.284, HEPG2TOX_HILL_SLOPE 6.55, HEPG2TOX_R_SQUARED 0.133, PBLUC_HILL_SLOPE 3.84, PBLUC_R_SQUARED 0.345, read-out: LUCIFERASE INFECTION ASSAY - IC50) was 5.34 µM.
Regarding `CN(C)C(=O)N1CCC(C(=O)N2CC(=O)N(C3CCCCC3)CC(OCc3ccncc3)C2)CC1` (centres undefined), the IC90 is above 6.8 µM. In addition, the IC50 under setting [1] was above 6.8 µM.
As for `Cc1ccc(-n2c(N(C)C)nc(/C=C(\C#N)C(=O)NC(C)c3ccccc3)c2Cl)cc1` (centres undefined), the 90% effect concentration (IC90) is above 10 µM. In addition, under “FFLUC_HILL_SLOPE 1.62, FFLUC_R_SQUARED 0.252, read-out: LUCIFERASE INFECTION ASSAY - IC50”, the half-maximal inhibitory concentration (IC50) was above 10 µM.
Take `CS(=O)(=O)c1nc2ccccc2n1CC(=O)c1ccc2c(c1)CCO2`: the IC90 is above 10 µM. The half-maximal inhibitory concentration (IC50) (PBLUC_HILL_SLOPE 0.389, PBLUC_R_SQUARED 0.133, read-out: LUCIFERASE INFECTION ASSAY - IC50) was above 10 µM.
As to `Cc1noc(C)c1CCC(=O)Nc1nc2cc(C(F)(F)F)ccc2n1Cc1ccco1`, the concentration for an effect of 90% (IC90) was 3.57 µM. The IC50 (HEPG2TOX_HILL_SLOPE 1.36, HEPG2TOX_R_SQUARED 0.789, PBLUC_HILL_SLOPE 10.4, PBLUC_R_SQUARED 0.861, read-out: LUCIFERASE INFECTION ASSAY - IC50) was found to be 2.89 µM.
With `COc1ccc(N(CCC23CC4CC(CC(C4)C2)C3)S(=O)(=O)c2ccccc2)cc1`, the IC90 is above 10 µM. Further, the IC50 under setting [1] is above 10 µM.
Regarding `CCOC(=O)c1sc2cccc(F)c2c1CSc1nc2sccc2c(=O)n1C`, the IC90 turned out to be 9.27 µM. The IC50 under setting [1] was found to be 4.11 µM.
For the molecule `CCOc1ccc(-c2cc(-c3ccc(S(C)(=O)=O)cc3)nc3c2cnn3C(C)C)cc1`, the IC90 was above 10 µM. Further, the half-maximal inhibitory concentration (IC50) (HEPG2TOX_HILL_SLOPE 15.4, HEPG2TOX_R_SQUARED 0.615, PBLUC_HILL_SLOPE 23, PBLUC_R_SQUARED 0.199, read-out: LUCIFERASE INFECTION ASSAY - IC50) was 9.21 µM.
On to `COc1ccc(CCN2C(=O)C=CC2=O)cc1OC`, for which the IC90 is 5.29 µM. In addition, the half-maximal inhibitory concentration (IC50) (FFLUC_HILL_SLOPE 0.51, FFLUC_R_SQUARED 0.0256, HEPG2TOX_HILL_SLOPE 14.8, HEPG2TOX_R_SQUARED 0.93, PBLUC_HILL_SLOPE 12.3, PBLUC_R_SQUARED 0.48, read-out: LUCIFERASE INFECTION ASSAY - IC50) came to 4.42 µM.
For `CC(C)(C)c1csc(Cc2ccc(-c3csnn3)cc2)n1`, the 90% effect concentration (IC90) worked out at 8.68 µM. Further, the IC50 (HEPG2TOX_HILL_SLOPE 6.43, HEPG2TOX_R_SQUARED 0.485, PBLUC_HILL_SLOPE 2.92, PBLUC_R_SQUARED 0.738, read-out: LUCIFERASE INFECTION ASSAY - IC50) was found to be 4.09 µM.
`c1ccn2c(Sc3ncnc4ccsc34)nnc2c1`: the 90% effect concentration (IC90) is above 10 µM. Also, the IC50 (HEPG2TOX_HILL_SLOPE 1.03, HEPG2TOX_R_SQUARED 0.779, PBLUC_HILL_SLOPE 16.5, PBLUC_R_SQUARED 0.198, read-out: LUCIFERASE INFECTION ASSAY - IC50) was determined as 9.21 µM.
Turning to `Cc1ccc(NC(=O)Nc2ccc(Cl)c(Cl)c2)nc1`, the concentration for an effect of 90% (IC90) was determined as 9.58 µM. The IC50 (PBLUC_HILL_SLOPE 3.93, PBLUC_R_SQUARED 0.477, read-out: LUCIFERASE INFECTION ASSAY - IC50) came out at 5.48 µM.
As for `Cc1nn(Cc2ccccc2Cl)c(C)c1CN(C)C(=O)/C=C/c1cnn(-c2ccccc2)c1`, the IC90 was 9.8 µM. Besides, the 50% inhibitory concentration (IC50) (HEPG2TOX_HILL_SLOPE 2.95, HEPG2TOX_R_SQUARED 0.991, PBLUC_HILL_SLOPE 3.77, PBLUC_R_SQUARED 0.729, read-out: LUCIFERASE INFECTION ASSAY - IC50) amounted to 5.47 µM.
Take `COc1cccc(-c2nc3ccc(NC(=O)Nc4cccc(C(C)=O)c4)cn3n2)c1`: the 90% effect concentration (IC90) was above 10 µM. In addition, under setting [1], the IC50 was above 10 µM.
As for `Clc1ccc(Sc2ncnc3ccsc23)cc1`, the IC90 was found to be 9.97 µM. In addition, the 50% inhibitory concentration (IC50) (PBLUC_HILL_SLOPE 15.3, PBLUC_R_SQUARED 0.133, read-out: LUCIFERASE INFECTION ASSAY - IC50) came to 8.63 µM.
In the case of `Cc1ccc(C(CCNCc2cccs2)c2ccco2)cc1` (centres undefined), the IC90 came to 2.72 µM. In addition, under setting [1], the IC50 worked out at 1.96 µM.
Take `c1ccc2c(c1)oc1c(-c3ccc4nccn4c3)cccc12`: the IC90 is above 11.6 µM. Moreover, the IC50 (HEPG2TOX_HILL_SLOPE 5.27, HEPG2TOX_R_SQUARED 0.667, PBLUC_HILL_SLOPE 2.08, PBLUC_R_SQUARED 0.703, read-out: LUCIFERASE INFECTION ASSAY - IC50) stood at 4.57 µM.
